Columns and labels:
rat EDL muscle = assay: Fatigue in rat EDL muscle in situ; assay type: in vivo
Text: Rats were placed under anesthesia using isoflurane and the skin around the experimental leg was removed. The distal end of the EDL muscle and its associated tendon were then isolated. The rat was then placed on the platform of an Aurora in-situ muscle analysis rig (806C), maintained at body temperature via a circulating water system. The knee was immobilized in a clamp between two sharpened screws and the distal tendon cut and tied to the arm of a force transducer (Aurora Scientific, Ontario, Canada) using a silk suture. The muscle was stimulated directly via the peroneal nerve. For isolation of the nerve, a 1 cm incision was made at the upper thigh and the overlying gastrocnemius muscle was cut to expose an approximate 5 mm stretch of the peroneal nerve. […] Muscle contractile properties were assessed by applying an electrical current to the nerve and recording the force generated by the muscle via a servomotor. […]
With the rat in situ EDL muscle preparation described in Example 3, a fatiguing protocol was utilized where muscle was stimulated for 600 seconds. […] To elicit muscle fatigue, the EDL muscle was stimulated with 350 msec electrical trains every 3 seconds for ten minutes at a frequency producing an initial force equal to 50% of maximal (FMax50) as determined by the force-frequency relationship for each animal.

healthy rats [1] = assay: Rotarod running assay; assay type: in vivo, rat; conditions: for Run time (s) mean ± SEM: 30 minutes prior
Protocol: Female Sprague Dawley rats (210-260 g) were obtained from Charles River Laboratories and acclimated in the test facility for a minimum of six days prior to the start of the study. All rats were trained the day prior to compound administration. Training consisted of placing the rats on the rotating drum (rod), starting at a low constant speed (10 RPM). The rats were acclimated to walk on the drum for 5 minutes before resting. A second training session of an increasing speed from 14-16 RPM was initiated after all rats in the experimental group had finished the first training session. […] On the day of the experiment animals were dosed thirty minutes prior to start of test. The test began with a 5 minute primer session, whereby animals were run at an increasing speed from 14-16 RPM over 5 minutes. Rats were then run at a constantly accelerating rate from 12 RPM to 25 RPM over the course of 10 minutes. […] Time to fall was recorded, with the test being terminated at 900 seconds. Compound A was administered via oral gavage 30 minutes prior to assessment. Each dose was formulated as a suspension containing 0.2% Tween 80, 0.5% HPMC and water. Dose volume was 5 mL/kg. Vehicle (0.2% Tween 80, 0.5% HPMC and water) was administered similarly. Control treatments were chosen based on association with amelioration of central fatigue (caffeine, Davis 2003), muscular fatigue (creatine, Boyadjiev, 2007) and dual central/muscular fatigue (phosphoserine, […] 1976).

healthy rats [2] = assay: Treadmill running assay; assay type: in vivo, rat
Protocol: Male Sprague Dawley rats (Charles River), 10-12 weeks old, 250-400 g. Rats were acclimated for a minimum of 2 days and weight was measured weekly. The endurance capacity of rats was assessed using a progressive exercise test as previously described (A. Aaker et al. J Cardiovasc Pharmacol28: 353-362, 1996; B. Helwig et al. J Appl Physiol. 2003 June; 94(6):2225-36). After familiarization with the treadmill apparatus, rats were run at a treadmill speed of 30 meters per minute (m/min) with a 5% incline. Every 15 minutes, the treadmill speed was increased by 5 meters per minute and the rats continued to exercise until they reached the point of fatigue and were unable to continue exercising (FIG. 1A). Exercise time was measured in minutes while exercise distance was recorded in meters. Compound A was administered via oral gavage 2 hours prior to assessment. Each dose was formulated as a suspension containing 1% hydroxypropyl methylcellulose (HPMC), 0.2% Tween 80, and micronized Compound A, and dose volume was 5 ml/kg. Vehicle (0.2% Tween 80, 1% HPMC and water) was administered similarly.

[3] = system: patients with peripheral artery disease and claudication; assay: Bilateral heel raise test, Phase II study; assay type: in vivo, human
Protocol: This study was a double-blind, randomized, placebo-controlled, three-period cross-over, hypothesis generating Phase II study in patients with peripheral artery disease and claudication. […] Secondary objectives included (a) evaluation and characterization of the relationship, if any, between the doses and plasma concentrations of Compound A and its pharmacodynamic effects, and (b) evaluation of the safety and tolerability of Compound A administered as single doses.
Single doses of each of 375 mg Compound A, 750 mg Compound A and placebo were administered in random order with a 6 to 10 day wash out between each dose. […] Results were analyzed using a repeated-measures ANCOVA with treatment, sequence, period, baseline, and patient in the model. […]
In the bilateral heel raise test, the lateral aspect of the ankle on the dominant leg was instrumented with an electromechanical goniometer connected to a PC-based data collection system to monitor and record ankle angle position and range of motion (Noraxon U.S.A., Inc., Scottsdale, Ariz.). […] The total number of heel raises, time, and a calculated index of work performed were assessed from the beginning of test to the onset of claudication and to maximal exercise. An index of work performed was calculated as follows: Heel Raise Work Index (HRWI)=(sinθ°*foot length)*body mass.

[4] = system: skinned human vastus lateralis fast fibers; conditions: skinned fast fibers from muscle biopsies; cited from earlier work
[5] = system: skinned fast skeletal muscle fibers from rabbit psoas muscle; conditions: cited from earlier work
[6] = 10 mg/kg oral gavage 2 hours prior
[7] = 20 mg/kg oral gavage 2 hours prior

## C#Cc1cnc2nc(O)n(C(CC)CC)c2n1 [Compound A, 6-ethynyl-1-(pentan-3-yl)-1H-imidazo[4,5-b]pyrazin-2-ol]
Rat EDL muscle; 1 mg/kg via duodenal cannula, vehicle 30 Hz
  average stimulation frequency for force production similar to pre-dose: approximately 26 Hz
Rat EDL muscle; 1 mg/kg, 600 seconds protocol, FIG. 4
  EDL muscle fatigue: decreased rat EDL muscle fatigue in situ
Healthy rats [1]; 0.3 mg/kg oral gavage
  Run time (s) mean ± SEM: 301 ± 36 s
Healthy rats [1]; 1 mg/kg oral gavage
  Run time (s) mean ± SEM: 334 ± 29 s
Healthy rats [1]; 3 mg/kg oral gavage
  Run time (s) mean ± SEM: 389 ± 65 s
Healthy rats [1]; 3 mg/kg, maximum dose tested
  change of running time: more than a doubling of running time
Healthy rats [2]; [6]
  Distance (m) Mean ± SEM: 1972 ± 176 m
  Time (Min) Mean ± SEM: 60.7 ± 4.2 min
Healthy rats [2]; [7]
  Distance (m) Mean ± SEM: 1943 ± 205 m
  Time (Min) Mean ± SEM: 59.4 ± 4.7 min
Healthy rats [2]; 10 and 20 mg/kg
  increase in treadmill running time over baseline: 20%
  increase in treadmill running time over vehicle control: 50%
[3]; PK/PD analysis, FIG. 14
  relationship between plasma concentrations and outcomes in the Heel Raise Test: strong positive relationship
[3]; single doses 375, 500, 750 mg, 3 and 6 hours after dosing
  calf muscle performance by heel raise testing: increased calf muscle performance
[4]
  force-calcium relationship: dramatically left-shifts
[5]
  force-calcium relationship: leftward-shift of the force-calcium relationship

Reference: patent US20190167676A1, “METHODS FOR IMPROVING RESISTANCE TO SKELETAL MUSCLE FATIGUE” (Cytokinetics, Inc., priority 2012, published 2019)
